Measurements: US20200352931A1, “OXALAMIDES AS MODULATORS OF INDOLEAMINE 2,3-DIOXYGENASE” (PHENEX DISCOVERY VERWALTUNGS-GMBH, priority 2017, published 2020)

Molecular target: T1, Indoleamine 2,3-Dioxygenase (IDO1) in SKOV-3 cells (Homo sapiens, UniProt P14902)
T1 construct: endogenous in cells; host or cells: SKOV-3 (ATCC HTB-77), stimulated with 50 ng/ml interferon gamma
Assay: SKOV-3 cellular indoleamine 2,3-dioxygenase assay
Details: 50 ng/ml Interferon gamma, 100 μM L-Tryptophan, 24 hours, N-Formylkynurenin fluorescence, read-out: cell based activity (IC50)
Protocol: SKOV-3 Cellular Indoleamine 2,3-Dioxygenase Assay
SKOV-3 cells were obtained from the American Type Culture Collection (ATCC® HTB-77™) and maintained in McCoy's medium (Pan Biotech) supplemented with 10% fetal bovine serum and 1% Penicilin/Streptomycin. Cells were kept at 37° C. in a humidified incubator with 5% CO2. For assay preparation, cells were seeded at a density of 2*10^5/m into black clear bottom 96 well plates in 100 μl medium/well supplemented with 50 ng/ml Interferon gamma (eBioscience, Thermo Fisher Scientific). After cells fully adhered to the plate, dilution series of compounds were added in medium containing additional L-Tryptophan to a final L-Tryptophan concentration of 100 μM. The cells were incubated for 24 hours. Detection of produced N-Formylkynurenin was performed by addition of 3-Methylpiperidine to a final concentration of 200 mM. The plates were sealed and heated to 65° C. for 20 minutes in a water bath. After cooling the fluorescence of each well was recorded with a Victor™ X4 (PerkinElmer) plate reader at an emission wavelength of 535 nm and excitation at 405 nm (Tomek et al.; Anal Bioanal Chem (2013) 405:2515-2524., Tomek et al.; Biochim Biophys Acta. 2015 September; 1850(9):1772-80).

T1 sequence (P14902 whole entry): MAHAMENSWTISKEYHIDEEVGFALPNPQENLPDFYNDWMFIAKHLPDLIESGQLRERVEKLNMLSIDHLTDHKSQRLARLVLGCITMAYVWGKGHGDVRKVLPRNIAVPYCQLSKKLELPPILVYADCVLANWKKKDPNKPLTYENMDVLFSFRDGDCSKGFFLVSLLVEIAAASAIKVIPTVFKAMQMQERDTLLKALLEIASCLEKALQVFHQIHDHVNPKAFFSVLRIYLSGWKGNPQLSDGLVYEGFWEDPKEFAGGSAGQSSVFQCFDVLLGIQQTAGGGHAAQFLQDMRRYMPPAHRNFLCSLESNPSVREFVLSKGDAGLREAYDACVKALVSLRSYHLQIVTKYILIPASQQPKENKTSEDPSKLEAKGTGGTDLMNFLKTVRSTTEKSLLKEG

For O=C(Nc1ccc(Br)cc1F)C(=O)N1CCC(c2ccnc3ccc(F)cc23)CC1 [1/26], the IC50 was under 100 nM.

Work on O=C(Nc1ccc(C(F)F)cc1)C(=O)N1CCC(c2ccnc3ccc(F)cc23)CC1 [1/22] yielded an IC50 of under 100 nM.

O=C(Nc1ccc(Cl)cn1)C(=O)N1CCC2(CC1)OCc1ccc(Cl)cc12 [100/15] showed an IC50 of over 1000 nM.

N#Cc1ccc(NC(=O)C(=O)N2CCC(c3ccnc4ccc(F)cc34)CC2)cc1 [1/14] gave an IC50 of under 100 nM.

Compound O=C(Nc1ccc(C(F)(F)F)cc1)C(=O)N1CCC(c2ccnc3ccc(F)cc23)CC1 [7/1] has an IC50 of under 100 nM.

N#Cc1ccc2c(c1)COC21CCN(C(=O)C(=O)Nc2ccc(Cl)cc2)CC1 [100/14] gave an IC50 of 100 to 1000 nM.

O=C(NC1Cc2ccc(F)cc21)C(=O)N1CCC2(CC1)COc1cc(C(F)(F)F)ccc12 (stereo not drawn) [Example 103, N-(4-Fluorobicyclo[4.2.0]octa-1(6),2,4-trien-7-yl)-2-oxo-2-(6-(trifluoromethyl)-2H-spiro[benzofuran-3,4′-piperidin]-1′-yl)acetamide] was tested, and the IC50 was over 1000 nM.

In the case of O=C(Nc1ccc(Cl)cn1)C(=O)N1CCC(c2cccc(Cl)c2Cl)CC1 [2/5], the IC50 is reported as 100 to 1000 nM.

Work on O=C(Nc1ccc(Cl)cn1)C(=O)N1CCC2(CC1)NC(=O)c1ccccc12 [100/6] yielded an IC50 of over 1000 nM.

O=C(Nc1ccc(Cl)cc1F)C(=O)N1CCC(c2ccnc3ccccc23)CC1 [1/2] was tested, and the IC50 was under 100 nM.

With O=C(Nc1ccc(Cl)cc1)C(=O)N1CCC2(CC1)OCc1cc(Cl)ccc12 [100/9] the IC50 was under 100 nM.

Work on O=C(Nc1ccc(Cl)cn1)C(=O)N1CCC2(CC1)OCc1ccncc12 [100/5] yielded an IC50 of over 1000 nM.

In the case of O=C(Nc1ccc(C(F)(F)F)cn1)C(=O)N1CCC(c2ccncc2-c2ccccc2)CC1 [6/2], the IC50 is reported as over 1000 nM.

In the case of O=C(Nc1ccc(Cl)cn1)C(=O)N1CCC2(CC1)OCc1cc(C(F)(F)F)ccc12 [100/11], the IC50 is reported as under 100 nM.

For O=C(NCC1CC1)C(=O)N1CCC(c2ccnc3ccc(F)cc23)CC1 [8/4], the IC50 was over 1000 nM.

Work on O=C(Nc1ccc(Cl)cc1)C(=O)N1CC[C@H](c2ccnc3ccc(F)cc23)[C@H](O)C1 (single isomer, unassigned) [10/1a] yielded an IC50 of 100 to 1000 nM.

For O=C(Nc1ccc(Cl)cn1)C(=O)N1CCC2(CC1)OCc1cc(Cl)ccc12 [100/8], the IC50 was 100 to 1000 nM.

For O=C(NC1CCC2(CC1)CC2)C(=O)N1CCC(c2ccnc3ccc(F)cc23)CC1 [8/5], the IC50 was over 1000 nM.

CS(=O)(=O)c1ccc(NC(=O)C(=O)N2CCC(c3ccnc4ccc(F)cc34)CC2)cc1 [5/10] was tested, and the IC50 was over 1000 nM.

In the case of CN1C(=O)C2(CCN(C(=O)C(=O)Nc3ccc(Cl)cn3)CC2)c2ccccc21 [100/4], the IC50 is reported as over 1000 nM.

Cc1cc(Cl)ccc1NC(=O)C(=O)N1CCC(c2ccnc3ccc(F)cc23)CC1 [1/32] was tested, and the IC50 was 100 to 1000 nM.

COc1cc(C2CCN(C(=O)C(=O)Nc3ccc(Cl)cn3)CC2)c2ccccc2n1 [1/34] gave an IC50 of over 1000 nM.

For O=C(Nc1ccc(Cl)c(F)c1)C(=O)N1CCC(c2ccnc3ccc(F)cc23)CC1 [1/18], the IC50 was under 100 nM.

In the case of N#Cc1ccc(NC(=O)C(=O)N2CCC(c3ccnc4ccc(F)cc34)CC2)c(F)c1 [1/23], the IC50 is reported as under 100 nM.

O=C(Nc1ccc(Cl)cn1)C(=O)N1CCC(c2ccnc3ccc(F)cc23)CC1 [Example 2, N-(5-Chloropyridin-2-yl)-2-(4-(6-fluoroquinolin-4-yl)piperidin-1-yl)-2-oxoacetamide] gave an IC50 of under 100 nM.

Work on O=C(Nc1ccc(C(F)(F)F)c(F)c1)C(=O)N1CCC(c2ccnc3ccc(F)cc23)CC1 [1/21] yielded an IC50 of 100 to 1000 nM.

CO[C@@H]1CN(C(=O)C(=O)Nc2ccc(Cl)cc2)CC[C@H]1c1ccnc2ccc(F)cc12 (single isomer, unassigned) [10/2a] gave an IC50 of under 100 nM.

Compound O=C(NCc1ccc(Cl)o1)C(=O)N1CCC(c2ccnc3ccc(F)cc23)CC1 [2/2] has an IC50 of over 1000 nM.

With O=C(Nc1ccc(OC(F)(F)F)cc1)C(=O)N1CCC(c2ccnc3ccc(F)cc23)CC1 [1/37] the IC50 was under 100 nM.

CC1(C)CN(C(=O)C(=O)Nc2ccc(Cl)cc2)CCC1c1ccnc2ccc(F)cc12 (stereo not drawn) [1/45] was tested, and the IC50 was under 100 nM.

Compound O=C(Nc1ccc(-c2cncnc2)cn1)C(=O)N1CCC(c2ccnc3ccc(F)cc23)CC1 [5/5] has an IC50 of over 1000 nM.

With CO[C@H]1CN(C(=O)C(=O)Nc2ccc(Cl)cc2)CC[C@@H]1c1ccnc2ccc(F)cc12 (single isomer, unassigned) [10/2b] the IC50 was under 100 nM.

O=C(NC1CCC(C(F)(F)F)CC1)C(=O)N1CCC(c2ccnc3ccc(F)cc23)CC1 (stereo not drawn) [8/6] showed an IC50 of over 1000 nM.

O=C(Nc1ccc(Cl)cn1)C(=O)N1CCC2(CC1)OCc1ccccc12 [100/1] gave an IC50 of 100 to 1000 nM.

Cc1ccc(NC(=O)C(=O)N2CCC(c3ccnc4ccc(F)cc34)CC2)c(F)c1 [1/24] gave an IC50 of under 100 nM.

With CN1C(=O)c2ccccc2C12CCN(C(=O)C(=O)Nc1ccc(Cl)cn1)CC2 [100/7] the IC50 was over 1000 nM.

Work on O=C(Nc1ccc(Cl)cn1)C(=O)N1CCCC(c2ccnc3ccccc23)CC1 (stereo not drawn) [1/8] yielded an IC50 of under 100 nM.

Work on O=C(Nc1ccc(Cl)cn1)C(=O)N1CCC(O)(c2ccnc3ccccc23)CC1 [1/9] yielded an IC50 of over 1000 nM.

With O=C(Nc1ccc(CC(F)(F)F)cc1)C(=O)N1CCC(c2ccnc3ccc(F)cc23)CC1 [1/36] the IC50 was 100 to 1000 nM.

In the case of O=C(Nc1ccc(Cl)cc1)C(=O)N1CCC(c2ccnc3c(F)cc(F)cc23)CC1 [1/30], the IC50 is reported as under 100 nM.

O=C(NC1CCC(F)(F)CC1)C(=O)N1CCC(c2ccnc3ccc(F)cc23)CC1 [8/3] showed an IC50 of over 1000 nM.

In the case of O=C(Nc1ncc(Cl)cc1F)C(=O)N1CCC(c2ccnc3ccc(F)cc23)CC1 [1/29], the IC50 is reported as under 100 nM.

O=C(Nc1ccc(Cl)cc1)C(=O)N1CCC(c2ccccc2)CC1 [1/1] gave an IC50 of under 100 nM.

Work on N#Cc1ccc2nccc(C3CCN(C(=O)C(=O)Nc4ccc(Cl)cc4)CC3)c2c1 [1/44] yielded an IC50 of 100 to 1000 nM.

Work on Cc1nc(NC(=O)C(=O)N2CCC(c3ccnc4ccc(F)cc34)CC2)ccc1Cl [5/3] yielded an IC50 of 100 to 1000 nM.

O=C(Nc1ccc(OCC(F)(F)F)cc1)C(=O)N1CCC(c2ccnc3ccc(F)cc23)CC1 [1/41] was tested, and the IC50 was 100 to 1000 nM.

In the case of O=C(Nc1ccc(Cl)cc1)C(=O)N1CCC2(CC1)OCc1cc(C(F)(F)F)ccc12 [100/12], the IC50 is reported as under 100 nM.

O=C(Nc1ccc(Cl)cc1F)C(=O)N1CCC(c2cc(C(F)(F)F)nc3ccccc23)CC1 [1/4] showed an IC50 of 100 to 1000 nM.

Work on O=C(Nc1ccc(Cl)cc1)C(=O)N1CC[C@@H](c2ccnc3ccc(F)cc23)[C@H](O)C1 (single isomer, unassigned) [Example 10a, trans-N-(4-Chlorophenyl)-2-(4-(6-fluoroquinolin-4-yl)-3-hydroxypiperidin-1-yl)-2-oxoacetamide] yielded an IC50 of under 100 nM.

O=C(Nc1ccc(Cl)cc1F)C(=O)N1CCC(c2ccnc3ccc(F)cc23)CC1 [1/6] was tested, and the IC50 was under 100 nM.

With O=C(Nc1ccc(F)c(Cl)c1)C(=O)N1CCC(c2ccccc2)CC1 [1/16] the IC50 was over 1000 nM.

O=C(Nc1ccc(F)cc1)C(=O)N1CCC(c2ccnc3ccc(F)cc23)CC1 [1/28] gave an IC50 of under 100 nM.

O=C(N[C@@H]1CCc2ccccc2C1)C(=O)N1CCC(c2ccnc3ccc(F)cc23)CC1 [5/1] gave an IC50 of over 1000 nM.

With O=C(Nc1ccc(OC(F)F)cc1)C(=O)N1CCC(c2ccnc3ccc(F)cc23)CC1 [1/39] the IC50 was under 100 nM.

O=C(N[C@H]1CCc2ccccc2C1)C(=O)N1CCC(c2ccnc3ccc(F)cc23)CC1 [Example 5, (S)-2-(4-(6-Fluoroquinolin-4-yl)piperidin-1-yl)-2-oxo-N-(1,2,3,4-tetrahydro-naphthalen-2-yl)acetamide] was tested, and the IC50 was 100 to 1000 nM.

O=C(Nc1ccc(Cl)cc1)C(=O)N1CCCC2(CC1)COc1cc(C(F)(F)F)ccc12 (stereo not drawn) [Example 102, N-(4-Chlorophenyl)-2-oxo-2-(6′-(trifluoromethyl)-2′H-spiro[azepane-4,3′-benzofuran]-1-yl)acetamide] gave an IC50 of 100 to 1000 nM.

O=C(Nc1ccc(-c2cnccn2)cn1)C(=O)N1CCC(c2ccnc3ccc(F)cc23)CC1 [5/4] was tested, and the IC50 was 100 to 1000 nM.

Work on O=C(Nc1ccc(Cl)cn1)C(=O)N1CCC(F)(c2ccnc3ccccc23)CC1 [1/35] yielded an IC50 of 100 to 1000 nM.

NS(=O)(=O)c1ccc(NC(=O)C(=O)N2CCC(c3ccnc4ccc(F)cc34)CC2)cc1 [5/8] showed an IC50 of over 1000 nM.

Compound O=C(N[C@H]1CCc2ccccc21)C(=O)N1CCC(c2ccnc3ccc(F)cc23)CC1 [8/2] has an IC50 of over 1000 nM.

For O=C(Nc1ccc(Cl)cn1)C(=O)N1C2CCC1CC(c1ccnc3ccccc13)C2 (stereo not drawn) [1/10], the IC50 was 100 to 1000 nM.

With O=C(Nc1ccc(C(F)(F)F)cc1F)C(=O)N1CCC(c2ccnc3ccc(F)cc23)CC1 [1/17] the IC50 was under 100 nM.

For O=C(Nc1ccc(CCCl)cc1)C(=O)N1CCC(c2ccnc3ccc(F)cc23)CC1 [Example 7, N-(4-(2-Chloroethyl)phenyl)-2-(4-(6-fluoroquinolin-4-yl)piperidin-1-yl)-2-oxoacetamide], the IC50 was under 100 nM.

In the case of O=C(Nc1ccc(Cl)cc1)C(=O)N1CCC(c2ccnc3ccc(F)cc23)C(F)(F)C1 (stereo not drawn) [1/46], the IC50 is reported as under 100 nM.

Compound O=C(Nc1ccc(C(F)F)cc1F)C(=O)N1CCC(c2ccnc3ccc(F)cc23)CC1 [1/25] has an IC50 of under 100 nM.

Work on O=C(Nc1ccc(Cl)cc1)C(=O)N1CC[C@@H](c2ccnc3ccc(F)cc23)[C@@H](O)C1 (single isomer, unassigned) [10/1b] yielded an IC50 of over 1000 nM.

With O=C(Nc1ccc(Cl)cc1F)C(=O)N1CCC=C(c2ccnc3ccc(F)cc23)CC1 [1/12] the IC50 was under 100 nM.

For CN(C(=O)C(=O)N1CCC(c2ccnc3ccc(F)cc23)CC1)c1ccc(Cl)cn1 [2/3], the IC50 was over 1000 nM.

For O=C(Nc1cc(F)c(Cl)cc1F)C(=O)N1CCC(c2ccnc3ccc(F)cc23)CC1 [1/19], the IC50 was under 100 nM.
